US20140093555A1, “PATCH PREPARATION CONTAINING AMINE OXIDE” (Nitto Denko Corporation, priority 2012, published 2014)

Tested on: skin isolated from a hairless mouse
Assay: Skin permeability test (patch on isolated hairless mouse skin, permeation cell, PBS(-) receptor, HPLC)
Format: in vitro ADME
Conditions: statement in words, Tables 3 and 4
Protocol: To examine transdermal absorbability of the drug, the obtained patch preparation was subjected to a skin permeability test.
A patch preparation was cut into a circle having a diameter of 6 mmφ, adhered to the stratum corneum side of a skin isolated from a hairless mouse, mounted on a cell for skin permeation experiment (effective area 9 mmφ) such that the dermic layer side was a receptor phase, and a skin permeation experiment was conducted. As a receptor solution, a deaerated PBS(−) solution (phosphate buffered saline) was used.

## CCOC(=O)C1=C(COCCN)NC(C)=C(C(=O)OC)C1c1ccccc1Cl (stereo not shown) [amlodipine besilate]
  skin permeability of the drug: low skin permeability
